Experimental data taken from US20210253598A1, “ARYL ANNULATED MACROCYCLIC INDOLE DERIVATIVES” (priority 2017, published 2021).
Several values for one entry are separate records, joined by “and”; a condition that tells them apart may be missing. Equal entries are not always repeated. Structures can show the parent of a compound that is named as a salt. Where two headings read alike, the source gives them in different places.

Tests used:
SUDHL5 [1] = assay: Induction of caspase-3/7 activity in SUDHL5 cells (Assay 4); assay type: cell-based; settings: SUDHL5, 3 hours treatment, Caspase-Glo 3/7, median, read-out: Caspase SUDHL5 [M] (median)
Method: (§1) Induction of Caspase-3/7 Activity Upon Treatment of Cells with Selected Compounds
(§2) The BH3-domain of MCL-1 sequesters pro-apoptotic proteins, thereby inhibiting apoptosis. In contrast, MCL-1 inhibitors are expected to antagonize this effect leading to an increase in apoptosis, which can be determined by measuring the activity of caspase-3/7.
(§3) The activity of caspase-3/7 was determined in DLBCL (Diffuse large B-cell lymphoma) cell lines (SUDHL5 and SUDHL10) upon treatment with different compounds, using the Caspase-Glo® 3/7 reagent from Promega (G8092).
(§4) As a control, medium without cells was also added to the plate. Cells were incubated in a humidified incubator at 37° C. overnight.
(§5) Rim wells were excluded. The cells were incubated for 3 hours in a humidified incubator at 37° C. After this incubation, 30 μl of Caspase-Glo® 3/7 reagent (Promega G8092) was added to each well using the Multidrop Combi Reagent Dispenser, followed by 1 hour incubation at 37° C. Finally, luminescence was read at 0.1 ms, with a gain of 3000 using the PHERAstar FS microplate reader (BMG Labtech).
(§6) For the evaluation of the results, the background measured with “medium-only” was subtracted from all other values. Then, the values were normalized to DMSO-only treated cells (every value was divided by the mean of the DMSO control).

SUDHL5 [2] = assay: Anti-proliferative effect in SUDHL5 cells, CellTiter-Glo (Assay 7); assay type: cell-based; settings: SUDHL5, 72 hours incubation, CellTiter-Glo, median, read-out: Antiproli SUDHL5 [M] (median)
Method: (§7) Assessment of the Anti-Proliferative Effect of Compounds in Different Cell Lines
(§8) The impact of compounds on the proliferation of different cell lines was assessed using the CellTiter-Glo® Luminescent Cell Viability reagent from Promega (G7573).
(§9) In parallel, cells were plated in a reference (day 0) plate for time zero determination. Cells were incubated in a humidified incubator at 37° C. overnight.
(§10) Rim wells were excluded. The cells were incubated for 72 hours in a humidified incubator at 37° C. The day 0 plate was measured by adding 30 μL/well of CTG solution (CellTiter-Glo® Luminescent Cell Viability reagent, Promega G7573) to time zero wells in the reference plate followed by a 10 minutes incubation and luminescence reading at 0.1 ms. using the PHERAstar FS microplate reader (BMG Labtech).
(§11) After 72 hours incubation, the treated plates were measured in the same way as the day 0 plate mentioned above. The Bella DRC Master Sheet was used to calculate IC50s, with CI=day 0 values and C0=DMSO control values.

SUDHL10 [3] = assay: Induction of caspase-3/7 activity in SUDHL10 cells (Assay 4); assay type: cell-based; settings: SUDHL10, 3 hours treatment, Caspase-Glo 3/7, median, read-out: Caspase SUDHL10 [M] (median)
Method: as §1, §2, §3, §4, §5, §6

MCL-1 = MCL-1 (Homo sapiens, UniProt Q07820, K194A/K197A/R201A); assay: Protein-protein interaction assay MCL-1/Noxa BH3 peptide, TR-FRET (MCL-1 assay, Assay 1); assay type: binding; settings: MCL-1 Assay [M] (median), MBP-MCL-1 / Noxa BH3 peptide
Chain of MCL-1 (Q07820 173-321 K194A/K197A/R201A, looked up): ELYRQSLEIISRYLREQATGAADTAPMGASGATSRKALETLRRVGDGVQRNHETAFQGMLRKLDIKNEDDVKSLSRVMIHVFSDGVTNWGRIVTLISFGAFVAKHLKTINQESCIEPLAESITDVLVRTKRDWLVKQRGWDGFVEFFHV
Method: The dose-dependent inhibition by the compounds described in this invention of the interaction between MCL-1 and the BH3 domain of Noxa (both human) was determined using a steady state binding competition assay with time-resolved fluorescence energy transfer (TR-FRET) readout. For that purpose MCL-1 (amino acids 173-321, N-terminal fused to Maltose Binding Protein (MBP), SEQ ID 1) and a synthetic Noxa BH3-derived peptide of sequence Biotin-PEG2-PEG2-PAELEVE-Nva-[…]-amide (SEQ ID 2) served as protein receptor and tracer ligand respectively. The MBP-MCL-1 was purchased from Beryllium (Bedford, Mass., USA). The expression and purification of this protein construct has been described elsewhere (DOI:10.1371/journal.pone.0125010). The Noxa BH3-derived peptide can be obtained from e.g. Biosyntan (Berlin, Germany).
For that, 100-fold concentrated DMSO solutions were prepared by serial dilutions (1:3.4) of a 2 mM stock solution in a clear, 384-well microtiter plate (Greiner Bio-One, Frickenhausen, Germany). From there, 50 nl were transferred in a dark test plate (Greiner Bio-One, Frickenhausen, Germany). The assay was initiated by addition of 2 μl of a 2,5-fold concentrated MBP-MCL-1 solution (usually for a 1 nM end concentration in 5 μl reaction volume) in aqueous assay buffer [50 mM Tris/HCl pH 7, 100 mM sodium chloride (NaCl), 50 mM potassium fluoride (KF), 0.005% Tween-20, 2 mM DTT, 0.1% bovine gamma globulin (BGG)] to the compounds in the assay plate. This was followed by a 10-minute incubation step at 22° C. for pre-equilibration of the putative complex between MBP-MCL-1 and the compounds.
The mixture was incubated in the dark for one hour at 22° C. and then overnight at 4° C. The formation of MCL-1/Noxa complexes was determined by measuring the resonance energy transfer of the anti-MBP-Eu-cryptate antibody to the streptavidin-XL665 present in the reaction.
The resulting data (ratio) were normalized, taking 0% inhibition as the mean value of control measurements (usually 32 data points) where all reagents were included. In this case 50 nl DMSO were used instead of compounds. […] IC50 values were determined by regression analysis based on a 4 parameter equation (minimum, maximum, IC50, Hill; Y=Max+(Min−Max)/(1+(X/IC50)^Hill) using the Screener Software (Genedata).

SUDHL5 [4] = assay: Induction of cytotoxicity in SUDHL5 cells, CellTiter-Glo (Assay 6); assay type: cell-based; settings: SUDHL5, 5 hours incubation, median, read-out: Cytotox SUDHL5 [M] (median)
Method: (§12) Induction of Cytotoxicity Upon Treatment of Cells with Selected Compounds
(§13) In principle, compounds that induce apoptosis will concomitantly induce cell cytotoxicity. Therefore, cytotoxicity assays were run in parallel in SUDHL5 and SUDHL10 cells.
(§14) As a control, medium without cells was also added to the plate. Cells were incubated in a humidified incubator at 37° C. overnight. […] Rim wells were excluded. The cells were incubated for 5 hours in a humidified incubator at 37° C. After this incubation, 30 μl of CellTiter-Glo® Luminescent Cell Viability reagent (Promega, G7573) was added to each well using the Multidrop Combi Reagent Dispenser, followed by 15 minutes incubation on a shaker at room temperature. Finally, luminescence was read at 0.1 ms, with a gain of 3000 using the PHERAstar FS microplate reader (BMG Labtech).

SUDHL10 [5] = assay: Induction of cytotoxicity in SUDHL10 cells, CellTiter-Glo (Assay 6); assay type: cell-based; settings: SUDHL10, 5 hours incubation, median, read-out: Cytotox SUDHL10 [M] (median)
Method: as §12, §13, §14

A2780 = assay: Anti-proliferative effect in A2780 cells, CellTiter-Glo (Assay 7); assay type: cell-based; settings: A2780, 72 hours incubation, CellTiter-Glo, several values per example, read-out: Antiproli A2780
Method: as §7, §8, §9, §10, §11

Cc1c2c(nn1C)COCc1ccccc1Cn1c(C(=O)O)c(CCCOc3cccc4ccccc34)c3cccc-2c31 (racemic) [Example 1, (rac)-4,5-Dimethyl-17-[3-(naphthalen-1-yloxy)propyl]-5,7,9,14-tetrahydroindolo[7,1-fg]pyrazolo[3,4-d][2,8]benzoxazacycloundecine-16-carboxylic Acid]
EC50 (SUDHL5 [1]; Homo sapiens, SU-DHL-5, 3 h): 1e-05 M | IC50 (SUDHL5 [2]; Homo sapiens, SU-DHL-5, 72 h): 9e-06 M | EC50 (SUDHL10 [3]; Homo sapiens, SU-DHL10, 3 h): > 3.3e-05 M | IC50 (MCL-1): 1.4e-08 M | IC50 (SUDHL5 [4]; Homo sapiens, SU-DHL-5, 5 h): 1.1e-05 M | IC50 (SUDHL10 [5]; Homo sapiens, SU-DHL10, 5 h): > 1.6e-05 M

Cc1c2c(nn1C)COCc1cccnc1Cn1c(C(=O)O)c(CCCOc3cccc4ccccc34)c3cccc-2c31 (racemic) [Example 4, (rac)-4,5-Dimethyl-17-[3-(naphthalen-1-yloxy)propyl]-5,7,9,14-tetrahydropyrazolo-[4′,3′:9,10]pyrido[3′,2′:3,4][1,6]oxazacycloundecino[8,7,6-hi]indole-16-carboxylic Acid]
EC50 (SUDHL5 [1]; Homo sapiens, SU-DHL-5, 3 h): 1.5e-05 M | IC50 (SUDHL5 [2]; Homo sapiens, SU-DHL-5, 72 h): 1.4e-05 M | EC50 (SUDHL10 [3]; Homo sapiens, SU-DHL10, 3 h): > 3.2e-05 M | IC50 (MCL-1): 5.3e-09 M | IC50 (SUDHL5 [4]; Homo sapiens, SU-DHL-5, 5 h): 1.2e-05 M | IC50 (SUDHL10 [5]; Homo sapiens, SU-DHL10, 5 h): > 2.3e-05 M

Cc1c2c(nn1C)COCc1ncccc1Cn1c(C(=O)O)c(CCCOc3cccc4ccccc34)c3cccc-2c31 (racemic) [Example 7, (rac)-4,5-Dimethyl-17-[3-(naphthalen-1-yloxy)propyl]-5,7,9,14-tetrahydropyrazolo[4′,3′:9,10]-pyrido[2′,3′:3,4][1,6]oxazacycloundecino[8,7,6-hi]indole-16-carboxylic Acid]
EC50 (SUDHL5 [1]; Homo sapiens, SU-DHL-5, 3 h): 3e-06 M | IC50 (SUDHL5 [2]; Homo sapiens, SU-DHL-5, 72 h): 4.6e-06 M | EC50 (SUDHL10 [3]; Homo sapiens, SU-DHL10, 3 h): 1.6e-05 M | IC50 (SUDHL5 [4]; Homo sapiens, SU-DHL-5, 5 h): 3.6e-06 M | IC50 (SUDHL10 [5]; Homo sapiens, SU-DHL10, 5 h): 1.5e-05 M

Cc1c2c(nn1C)CN(S(=O)(=O)c1ccc(N3CCOCC3)nc1)Cc1ccccc1Cn1c(C(=O)O)c(CCCOc3cccc4ccccc34)c3cccc-2c31 (racemic) [Example 17, (rac)-4,5-Dimethyl-8-{[6-(morpholin-4-yl)pyridin-3-yl]sulfonyl}-17-[3-(naphthalen-1-yloxy)propyl]-7,8,9,14-tetrahydro-5H-indolo[1,7-bc]pyrazolo[4,3-e][2,8]benzodiazacycloundecine-16-carboxylic Acid Acetate Salt]
EC50 (SUDHL5 [1]; Homo sapiens, SU-DHL-5, 3 h): 3e-06 M | IC50 (SUDHL5 [2]; Homo sapiens, SU-DHL-5, 72 h): 3.9e-06 M | EC50 (SUDHL10 [3]; Homo sapiens, SU-DHL10, 3 h): 8.5e-06 M | IC50 (MCL-1): 3.4e-08 M | IC50 (SUDHL5 [4]; Homo sapiens, SU-DHL-5, 5 h): 3.1e-06 M | IC50 (SUDHL10 [5]; Homo sapiens, SU-DHL10, 5 h): 1.4e-05 M | IC50 (A2780; Acetate Salt): 5.77 µM | IC50 (A2780; Homo sapiens, A2780, 72 h): 4.91 µM

Cc1c2c(nn1C)COCc1cccnc1Cn1c(C(=O)O)c(CCCOc3cccc4ccccc34)c3cccc-2c31 (single isomer, unassigned; enantiomer 1) [Example 5, 4,5-Dimethyl-17-[3-(naphthalen-1-yloxy)propyl]-5,7,9,14-tetrahydropyrazolo[4′,3′:9,10]-pyrido[3′,2′:3,4][1,6]oxazacycloundecino[8,7,6-hi]indole-16-carboxylic Acid (Enantiomer 1)]
EC50 (SUDHL5 [1]): 5.4e-06 M | IC50 (SUDHL5 [2]): 5.2e-06 M | EC50 (SUDHL10 [3]): 1.4e-05 M | IC50 (MCL-1): 2.9e-09 M | IC50 (SUDHL5 [4]): 4.6e-06 M | IC50 (SUDHL10 [5]): 1.3e-05 M

Cc1c2c(nn1C)COCc1cccnc1Cn1c(C(=O)O)c(CCCOc3cccc4ccccc34)c3cccc-2c31 (single isomer, unassigned; enantiomer 2) [Example 6, 4,5-Dimethyl-17-[3-(naphthalen-1-yloxy)propyl]-5,7,9,14-tetrahydropyrazolo[4′,3′:9,10]-pyrido[3′,2′:3,4][1,6]oxazacycloundecino[8,7,6-hi]indole-16-carboxylic Acid (Enantiomer 2)]
EC50 (SUDHL5 [1]): > 2.2e-05 M | IC50 (SUDHL5 [2]): 1.2e-05 M | EC50 (SUDHL10 [3]): > 3.3e-05 M | IC50 (MCL-1): 1.1e-08 M | IC50 (SUDHL5 [4]): > 1.9e-05 M | IC50 (SUDHL10 [5]): > 3.3e-05 M

Cc1c2c(nn1C)COCc1ncccc1Cn1c(C(=O)O)c(CCCOc3cccc4ccccc34)c3cccc-2c31 (single isomer, unassigned; enantiomer 2) [Example 9, 4,5-Dimethyl-17-[3-(naphthalen-1-yloxy)propyl]-5,7,9,14-tetrahydropyrazolo[4′,3′:9,10]-pyrido[2′,3′:3,4][1,6]oxazacycloundecino[8,7,6-hi]indole-16-carboxylic acid-N-ethylethanamine Salt (Enantiomer 2)]
EC50 (SUDHL5 [1]): > 3.3e-05 M | IC50 (SUDHL5 [2]): 2e-05 M | EC50 (SUDHL10 [3]): > 3.3e-05 M | IC50 (MCL-1): 3.2e-08 M | IC50 (SUDHL5 [4]): > 3.3e-05 M | IC50 (SUDHL10 [5]): > 3.3e-05 M

Cc1c2c(nn1C)COCc1ccccc1Cn1c(C(=O)O)c(CCCOc3cccc4ccccc34)c3ccc(Cl)c-2c31 (single isomer, unassigned; enantiomer 2) [Example 38, (+)-3-Chloro-4,5-dimethyl-17-[3-(naphthalen-1-yloxy)propyl]-5,7,9,14-tetrahydroindolo[7,1-fg]pyrazolo[3,4-d][2,8]benzoxazacycloundecine-16-carboxylic Acid (Enantiomer 2)]
EC50 (SUDHL5 [1]): 1.7e-06 M | EC50 (SUDHL10 [3]): 1.1e-05 M | IC50 (MCL-1): 7.1e-09 M | IC50 (SUDHL5 [4]): 2.3e-06 M | IC50 (SUDHL10 [5]): 6.8e-06 M

Cc1c2c(nn1C)COCc1cccnc1Cn1c(C(=O)O)c(CCCOc3cccc4ccccc34)c3cccc-2c31 [Example 04]
IC50 (A2780): 31.1 µM and > 33 µM
